# In publication PMC11087509, “Multimodal binding and inhibition of bacterial ribosomes by the antimicrobial peptides Api137 and Api88” (Nature Communications, 2024):
# Where a SMILES comes first, the peptide text is derived from it. The star is where a group is joined. Orn(α-tetramethylguanidino) = CN(C)C(=N[C@@H](CCCN)C(=O)*)N(C)C
# What was measured:
# [1] = test system: ribosome (arrest at UAG stop codon of model yrbA ORF); experiment: In vitro toeprinting analysis (yrbA-fs15 template, TAG stop codon); assay type: biochemical; conditions: 50 µmol/L; gel, one of two replicates
# Protocol: Toeprinting experiments using the yrbA-fs15 DNA template with a TAG stop codon were performed in the NEB classic PURExpress system (New England Biolabs)[21] as described above. The template was prepared by PCR[21] by combining the overlapping primers T7, T7-IR-AUG, IR-yrbA-fs15-RF1 (for TAG), post-NV1, and NV1, rendering the sequence:
# […](TAG)[…] (ORF sequence is underlined). The peptides Api137 and Api88 were added from stock solutions in water to a final concentration of 50 µM.
# [2] = test system: murine infection models; conditions: various models, different routes of administration; cited from earlier work
# Text: Here we have focused on two structurally modified versions of apidaecin 1b ([…]), which was originally isolated from the western honeybee (Apis mellifera). […] Api137 and Api88 differ only in their C-termini, i.e., a free acid versus an amide, which are negatively charged or neutral, respectively, ...
# [3] = target: T1, 50S subunit (Escherichia coli, UniProt P0A7M6+P0ADZ0+P60723+P61175); experiment: Fluorescence polarization binding, 50S subunit; parameters: species or system E. coli
# T1 construct: Ribosomes were isolated from the E. coli strain MRE600; made in house; native subunits isolated in house
# Protocol: Several hundred grams of log-phase cells were commercially produced and purchased. Cells were washed in buffer A (20 mmol/L HEPES (pH 7.6), 6 mmol/L MgAc2, 30 mmol/L AcOK, 4 mmol/L ß-mercaptoethanol) and lysed in an M-110L microfluidizer (Microfluidics) at 17,000 psi and 4 °C. Cell debris was removed by low-speed centrifugation (15,000× g, 10 min, 4 °C) to obtain S30 lysate. Crude ribosomes, mostly containing 70S ribosomes, were pelleted by ultracentrifugation (40,000× g, 17 h, 4 °C) and resuspended in buffer A. The 70S ribosomes were separated from 30S and 50S subunits by zonal ultracentrifugation (Beckman Ti-15; 6–40% sucrose gradient in buffer A, 44,000× g, 16 h, 4 °C). The 70S-containing fractions were collected, and the ribosomes were sedimented by ultracentrifugation (40,000× g, 17 h, 4 °C). Since these 70S ribosomes still contained tRNAs and mRNA, they were resuspended in buffer B (20 mmol/L HEPES (pH 7.6), 1 mmol/L MgAc2, 0.2 mol/L NH4Ac, 4 mmol/L ß-mercaptoethanol), which allows for dissociation into 30S and 50S subunits, and subjected to a second zonal centrifugation (Beckman Ti-15, 44,000× g, 16 h, 4 °C), but this time in a 6–40% sucrose gradient prepared in buffer B. Fractions containing 30S and 50S subunits were collected, sedimented by ultracentrifugation (40,000× g, 17 h, 4 °C), resuspended in buffer A, aliquoted, shock-frozen in liquid nitrogen, and stored at −80 °C.
# Dissociation constants (Kd) were determined using purified 70S ribosome, 50S or 30S subunit and cf-labeled peptides in ribosome preparation buffer. Briefly, black 384-well plates (flat bottom, 781209, Greiner Bio-One GmbH) were blocked with casein (0.5%, w/v) in PBS containing 0.05% (v/v) Tween 20 at 4 °C overnight and washed three times with phosphate buffer. A 2-fold dilution series (22 steps) of pure 70S ribosome, 50S or 30S subunit (10 μL per well) in ribosome preparation buffer was prepared in a black 384-well plate. The cf-labeled peptide was dissolved in ribosome preparation buffer (10 μL, 40 nmol/L), added to each well, centrifuged (500 x g, 2 min), and incubated at 28 ± 1 °C for 90 min. Fluorescence polarization was measured on a […]^TM microplate reader (Beckman Coulter, Krefeld, Germany) in the top reading position (λexc = 485 nm, λem = 535 nm). Data were fitted to a nonlinear dose-response logistic transition equation [y = y0 + a/(1 + (x/x0)b)] using the Levenberg-Marquardt algorithm, with Kd represented by the x0 coefficients (GraphPad Prism for Windows v. 10.1.2, San Diego, CA, USA).
# [4] = test system: purified 70S ribosomes; experiment: In vitro transcription-translation (ITT) of sfGFP; assay type: biochemical, E. coli
# Text: sfGFP was expressed using the NEB PureExpress Delta RF123 Kit (New England Biolabs). The sfGFP DNA template encoding for an UAG stop codon was amplified from the pY71sfGFP plasmid by PCR using sfGFP primers (sfGFP fwd: […] and sfGFP rev: […]). The release factor RF1 included in the kit was 50-fold diluted (v/v) in freshly prepared 1x Pure System Buffer (PSB, 9 mmol/L magnesium acetate, 5 mmol/L K3PO4 (pH 7.3), 95 mmol/L potassium glutamate, 5 mmol/L NH4Cl, 0.5 mmol/L CaCl2, 1 mmol/L spermidine, 8 mmol/L putrescine, 1 mmol/L DTT). sfGFP was expressed in a freshly prepared mixture of kit solution A (2 µL), kit solution B (1.5 µL), 50-fold diluted RF1 (0.5 µL), sfGFP template (0.1325 pmol, 35 ng) or water as control (0.25 µL), PSB (0.25 µL), and a PrAMP (50, 5, 0.05 or 0 µmol/L) dissolved in water (0.5 µL). The reaction mixture was transferred to a black 384-well plate (Greiner Bio-One GmbH, Frickenhausen, Germany), covered with a lid, and incubated in a microplate reader (Gemini EM, Molecular Devices) at 37 °C for two hours. Fluorescence was recorded every 10 min (λexc = 485 nm, λem = 535 nm).
# [5] = test system: uL22 and uL4; conditions: cited from earlier work
smiles,measurement,setting,value
CC[C@H](C)[C@H](NC(=O)[C@H](Cc1ccc(O)cc1)NC(=O)[C@@H](NC(=O)[C@@H]1CCCN1C(=O)[C@H](CCCNC(=N)N)NC(=O)[C@H](CC(N)=O)NC(=O)[C@H](CC(N)=O)NC(=O)[C@H](CCCN)N=C(N(C)C)N(C)C)C(C)C)C(=O)N1CCC[C@H]1C(=O)N[C@@H](CCCNC(=N)N)C(=O)N1CCC[C@H]1C(=O)N[C@@H](CCCNC(=N)N)C(=O)N1CCC[C@H]1C(=O)N1CCC[C@H]1C(=O)N[C@@H](Cc1c[nH]cn1)C(=O)N1CCC[C@H]1C(=O)N[C@@H](CCCNC(=N)N)C(=O)N[C@@H](CC(C)C)C(=O)O [Api137] ({Orn(α-tetramethylguanidino)}-NNRPVYIPRPRPPHPRL-OH),toeprinting band at the UAG stop codon,[1],intense toeprinting band
same,efficacy in murine infection models,[2],demonstrated efficacy in various murine infection models
same,Kd,"[3]; apparent Kd, cf-labeled PrAMP (10 μL, 40 nmol/L), ribosome preparation buffer pH 7.6, 28 °C, 90 min, mean of triplicates",2180 ± 110 nM
same,Kd for 50S subunit lower than for 70S ribosome,"[3]; ratio 70S / 50S, cf-labeled",two-
same,production of sfGFP reduced down to,"[4]; absence of RF1, 50 µmol/L",~ 60%
same,share of inhibitory effect based on a RF1-independent mechanism,"[4]; in vitro protein translation, with vs without RF1",half of the inhibitory effect
same,ribosomal proteins interacting (genetic screen),[5],uL22 and uL4
